What was measured:
MCF-7/ADR cells = assay: Cell growth inhibition using MCF-7/ADR cells; type: cell-based; conditions: Homo sapiens, NCI/ADR-RES
Description: (§1) Compounds can be evaluated for their ability to inhibit in vitro the growth of HeLa cells, an immortal cell line derived from a human cervical carcinoma commonly used to evaluate the cytotoxicity of potential therapeutic agents. The following data reflect the cytotoxicity of selected examples of the present invention. The values given represent the concentration of test compound required to inhibit by 50% the uptake of Alamar Blue (Biosource International, Camarillo, Calif.) by HeLa cell cultures, which correlates directly with the overall levels of cellular metabolism in the culture, and is generally accepted as an appropriate marker of cell growth. The test was conducted according to the method of Ahmed et al. (J. Immunol. Methods 1994, 170, 211). […] Compounds were similarly evaluated for cell growth inhibition using MCF-7 cells and MCF-7/ADR cells.

HeLa cells = assay: Inhibition of HeLa cell growth (Alamar Blue uptake); type: cell-based; conditions: Homo sapiens; concentration required to inhibit by 50% the uptake of Alamar Blue by HeLa cell cultures
Description: as §1

MCF-7 cells = assay: Cell growth inhibition using MCF-7 cells; type: cell-based; conditions: Homo sapiens, MCF7
Description: as §1

IC50 (MCF-7/ADR cells): 0.5 µM
IC50 (HeLa cells): 0.15 µM
IC50 (MCF-7 cells): 0.15 µM
melting point: 145 to 146 °C
SMILES: COc1ccc(NS(=O)(=O)c2cc(OC)c(OC)c(OC)c2)cc1O [Example 1, 1-[(3-Hydroxy-4-methoxyphenyl)aminosulfonyl]-3,4,5-trimethoxybenzene]
